Consider 19 compounds from ChEMBL document CHEMBL1641367, “Antioxidant, anti-inflammatory and anti-hyperglycaemic activities of heterocyclic homoprostanoid derivatives” (2011).

Activity calls are given as the source filed them. The rule behind the calls is not given here.

In test [1] the test system is Serum. Description: Antiinflammatory activity in bovine serum assessed as denaturation of albumin at 1 mM after 10 mins by spectrophotometry. The note with it: Bos taurus. It counts as functional.
Test [2] relates to Rattus norvegicus. Description: Antiinflammatory activity in rat assessed as inhibition of carrageenan-induced hind paw edema at 100 mg/kg, po measured after 3 hrs of carrageenan challenge. The class given is functional.
Test [3] has as its target Dipeptidyl peptidase 4 (Homo sapiens) (UniProt P27487). Description: Inhibition of DPP4 at 500 ug/ml after 30 mins by spectrophotometry.
Test [4] has as its system Rattus norvegicus. Kind of test: Antiinflammatory activity in rat assessed as inhibition of complete Freund's adjuvant-induced paw swelling at 100 mg/kg, po administered on day 21 post induction of inflammation measured on day 35. It counts as functional.
Test [5] concerns Mus musculus. Description: Antihyperglycemic activity in mouse assessed as decrease in blood glucose AUC level at 100 mg/kg, po administered before glucose challenge measured after 120 mins post glucose infusion. It counts as functional, organism-based. Also noted: dose 100 mg/kg.
Test [6] deals with Mus musculus. Kind of test: Antihyperglycemic activity in mouse assessed as decrease in blood glucose AUC level at 100 mg/kg, ip administered before glucose challenge measured after 120 mins post glucose infusion. It counts as functional. The note with it: 2 h, route intraperitoneal.
The test system of test [7] is Serum. Kind of test: Antiinflammatory activity in bovine serum assessed as denaturation of albumin at 5 mM after 10 mins by spectrophotometry. It counts as functional. The note with it: Bos taurus.
Test [8] relates to Rattus norvegicus. Kind of test: Antiinflammatory activity in rat assessed as inhibition of complete Freund's adjuvant-induced paw swelling at 5 mg/kg, po administered on day 21 post induction of inflammation measured on day 35. It counts as functional.
Test [9] concerns Serum. Description: Antiinflammatory activity in bovine serum assessed as denaturation of albumin at 0.01 mM after 10 mins by spectrophotometry. It counts as functional. The note with it: Bos taurus.
Test [10] relates to Serum. Kind of test: Antiinflammatory activity in bovine serum assessed as denaturation of albumin at 0.25 mM after 10 mins by spectrophotometry. The class given is functional. The settings on record: Bos taurus.

Chain of Dipeptidyl peptidase 4 (Homo sapiens) (P27487 whole entry, looked up): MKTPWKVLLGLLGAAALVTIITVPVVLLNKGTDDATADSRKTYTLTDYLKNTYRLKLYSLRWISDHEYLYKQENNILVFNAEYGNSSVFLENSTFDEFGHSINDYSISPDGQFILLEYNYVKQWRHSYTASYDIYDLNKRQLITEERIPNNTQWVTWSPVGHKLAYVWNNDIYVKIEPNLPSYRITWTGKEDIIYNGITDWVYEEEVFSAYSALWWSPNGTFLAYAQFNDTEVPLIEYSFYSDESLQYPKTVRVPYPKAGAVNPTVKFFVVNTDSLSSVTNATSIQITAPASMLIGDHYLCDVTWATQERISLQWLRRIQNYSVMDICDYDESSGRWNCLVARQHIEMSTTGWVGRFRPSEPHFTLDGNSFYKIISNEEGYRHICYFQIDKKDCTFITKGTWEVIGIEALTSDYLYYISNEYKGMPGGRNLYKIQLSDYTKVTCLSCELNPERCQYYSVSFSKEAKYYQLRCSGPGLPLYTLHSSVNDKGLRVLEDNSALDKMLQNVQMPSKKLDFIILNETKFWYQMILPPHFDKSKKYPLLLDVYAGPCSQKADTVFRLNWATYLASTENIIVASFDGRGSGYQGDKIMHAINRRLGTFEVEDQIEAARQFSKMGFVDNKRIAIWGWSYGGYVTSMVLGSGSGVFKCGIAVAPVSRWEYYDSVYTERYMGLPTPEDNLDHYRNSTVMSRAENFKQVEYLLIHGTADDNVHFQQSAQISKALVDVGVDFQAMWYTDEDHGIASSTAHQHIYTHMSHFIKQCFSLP

As to `CCCCCCCCc1nc2ccc([N+](=O)[O-])cc2nc1CCCCCCCC(=O)O`, the inhibition at 1000 µM in the test on Serum [1] amounted to 36.9%. Moreover, the inhibition in vivo at 100 mg/kg in the test on Rattus norvegicus [2] was 39.6%; in the test with Rattus norvegicus [4], 53.3%; with Mus musculus [6] it was 45.1%. For the same compound, the inhibition in test [3] came out at 64%. In addition, the inhibition result with Mus musculus [5] is “inactive”.
For `CCCCCCCCC1=NC(=S)N=C1CCCCCCCC(=O)O`, the inhibition at 1000 µM in the test with Serum [1] was 78.3%. For the same compound, in the test on Rattus norvegicus [2], the inhibition in vivo at 100 mg/kg is -7.17%.
Regarding `CCCCCCCCC1=NC(=O)N=C1CCCCCCCC(=O)OCCO[N+](=O)[O-]`, in the test with Serum [1], the inhibition at 1000 µM came to 25.1%. Moreover, in the test on Rattus norvegicus [2], the inhibition in vivo at 100 mg/kg is -22.8%. For the same compound, the inhibition in test [3] was -6.22%.
As for `O=C(O)Cc1ccccc1Nc1c(Cl)cccc1Cl` [DICLOFENAC], the inhibition at 5000 µM in the test on Serum [7] turned out to be 56.3%. For the same compound, the inhibition in vivo at 100 mg/kg in the test on Rattus norvegicus [2] worked out at 38.2%. Further, the inhibition in vivo at 5 mg/kg with Rattus norvegicus [8] is 35.3%.
For the compound `CCCCCCCCC1OC(C)(C)OC1CCCCCCCC(=O)OCC` (stereo unspecified), the inhibition at 5000 µM with Serum [7] turned out to be 46.4%.
As to `CCCCCCC(CC1OC(C)(C)OC1CCCCCCCC(=O)OC)OC(C)=O` (stereo unspecified), the inhibition at 5000 µM in the test on Serum [7] turned out to be 48.5%.
For the compound `CCCCCCCCC1=NC(=O)N=C1CCCCCCCC(=O)O`, in the test on Serum [1], the inhibition at 1000 µM amounted to 76.7%. Moreover, the inhibition in vivo at 100 mg/kg in the test with Rattus norvegicus [2] is -12.9%.
On to `CCCCCCCCc1nc2ccc(Cl)cc2nc1CCCCCCCC(=O)O`, for which, in the test with Serum [1], the inhibition at 1000 µM came out at 57.1%. The inhibition in vivo at 100 mg/kg turned out to be 26.7% with Rattus norvegicus [2], 44.2% in the test with Rattus norvegicus [4] and 36.7% with Mus musculus [6]. For the same compound, the inhibition in [3] was found to be 45.5%. Further, in the test with Mus musculus [5], the inhibition entry was “inactive”.
As for `CCCCCCCCC1=NC(=S)N=C1CCCCCCCC(=O)NN`, the inhibition at 10 µM in the test with Serum [9] is 37.2%.
For the compound `CCCCCCCCc1nc2ccc(C)cc2nc1CCCCCCCC(=O)O`, the inhibition at 1000 µM in the test with Serum [1] was determined as 37.4%. For the same compound, the inhibition in vivo at 100 mg/kg in the test with Rattus norvegicus [2] came out at 12.5%. Moreover, in [3], the inhibition is 88.1%.
Take `CCCCCCCCC1=NC(=O)N=C1CCCCCCCC(=O)NN`: in the test on Serum [1], the inhibition at 1000 µM is 31.4%.
`CCCCCCCCC1=NC(=S)N=C1CCCCCCCC(=O)OCCO[N+](=O)[O-]`: the inhibition at 10 µM in the test on Serum [9] was found to be 38.1%. For the same compound, in the test with Rattus norvegicus [2], the inhibition in vivo at 100 mg/kg was -22.4%. Moreover, the inhibition in [3] was 23.3%.
For `CCCCCCCCc1nc(=S)[nH]nc1CCCCCCCC(=O)O`, in the test with Serum [10], the inhibition at 250 µM turned out to be 14%. Moreover, the inhibition in vivo at 100 mg/kg in the test on Rattus norvegicus [2] was -3.82%. The inhibition in test [3] is 58.3%.
In the case of `CCCCCCCCC1=NC(=O)CC(=O)N=C1CCCCCCCC(=O)O`, the inhibition at 250 µM in the test with Serum [10] was 37%. In the test on Rattus norvegicus [2], the inhibition in vivo at 100 mg/kg came out at 1.74%. Besides, the inhibition in [3] stood at 12.3%.
Regarding `CCCCCCCCc1nc2ccccc2nc1CCCCCCCC(=O)O`, the inhibition at 1000 µM with Serum [1] came out at 75.7%. In addition, the inhibition in vivo at 100 mg/kg in the test on Rattus norvegicus [2] was 34.4%. Further, the inhibition in [3] was 73.6%.
As to `CCCCCCCCC1=NC(=O)N=C1CCCCCCCC(=O)NN1C(=O)CSC1c1ccc(Cl)cc1` (stereo unspecified), in the test with Rattus norvegicus [2], the inhibition in vivo at 100 mg/kg was found to be 0%.
As for `CCCCCCCCC1=NC(=S)N=C1CCCCCCCC(=O)NN1C(=O)CSC1c1ccc(Cl)cc1` (stereo unspecified), in the test on Rattus norvegicus [2], the inhibition in vivo at 100 mg/kg was -21.7%.
In the case of `CCCCCCCCc1nc2ccccc2nc1CCCCCCCC(=O)NN`, the inhibition at 1000 µM in the test with Serum [1] amounted to 3.72%.
In the case of `CCCCCCCCc1nonc1CCCCCCCC(=O)O`, the inhibition at 5000 µM with Serum [7] was 25.4%. Also, the inhibition in test [3] was 2.2%.
